Measured values published in US9579358B2, “Compositions for binding to amyloid proteins” (LANCASTER UNIVERSITY BUSINESS ENTERPRISES LIMITED, priority 2011, dated 2017).
Non-standard residues stand in square brackets, D forms with d. Residues, ends and D or L forms follow the SMILES beside them. No end group written: not given here.

How the values were obtained:
Aβ42 = target: T1, Aβ42 (Homo sapiens, UniProt P05067); assay: Atomic force microscopy of incubated Aβ42; assay type: biochemical; details: 1:2 molar ratio RI-OR2-TAT:Aβ42; Aβ42 25 μM, 24 h
T1 construct: Recombinant Aβ42, Ultrapure, was purchased from rPeptide, Bogart, Ga., USA; purchased rPeptide, Bogart, Ga., USA
T1 sequence (P05067 672-713 limits assumed): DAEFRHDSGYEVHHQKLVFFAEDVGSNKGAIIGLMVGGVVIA
Description: Aβ42 was incubated at 25 μM in the presence or absence of 12.5 μM RI-OR2-TAT in PBS, pH 7.4, for 24 h. Samples were diluted 1:10 in PBS and then a 2 μl aliquot was deposited onto the surface of freshly cleaned mica and allowed to dry.
Images were obtained in tapping mode using a Multimode™ SPM NanoScope IIIa microscope (Digital Instruments, New York, USA). Silicon cantilever tips measuring 125 μm long, 30 μm wide and with a tip radius <10 nm were used (Budget Sensors, Bulgaria). The resonance frequency was 300 kHz and force constants 40 Nm. All images were first order flattened and edited using WSxM 5.0 Develop 4.3 software, (Nanotech, Madrid, Spain).

APP/PS1 transgenic mice = assay: Brain pathology after 21 days of treatment; assay type: in vivo; details: 100 nMol/kg i.p. once daily
Excerpt: APPswe/PS1ΔE9 mice with a C57Bl/6 background (APP/PS1 mice) were obtained from the Jackson lab (http://research.iax.org/repository/alzheimers.html). To determine if Flu-RI-OR2-TAT crosses the blood brain barrier (Example 4), 2 male 17-months-old APP/PS1 animals and 2 16-months-old C57BL6 animals were used. To look at the effects of RI-OR2-TAT on mouse brain pathology (Example 5), 8 female 10-months-old APP/PS1 mice were used. The animals were housed in single cages in a temperature controlled holding room (21.5° C.±1) with 12:12 h light and dark cycle. Food and water was available ad libitum.
For Example 5, 4 animals were injected intraperitonially (i.p.) with 0.9% NaCl (vehicle control) and the other 4 with RI-OR2-TAT (100 nMol/Kg in 0.9% NaCl) once daily, for 21 days. On the 22nd day, the animals were perfused transcardially with ice-cold PBS and 4% paraformaldehyde and then the brains were removed and post-fixed in 4% ice cold paraformaldehyde.
All brains in paraformaldehyde were transferred to 30% sucrose overnight and then snap frozen with Envirofreez™ (Sigma, UK) and, using a Leica cryostat, 40 microns thick coronal sections were cut at anatomical regions of −2 to −3 bregma. Sections were preserved in cryoprotect with the first section taken at random and then every 5th section afterwards.
For Example 5, to stain for activated microglia, an inflammation response marker, sections were pretreated with 0.05 M sodium citrate buffer, pH 9, and incubated at 90° C. for 30 mins and stained with anti Iba-1 (1:2000 dilution, Wako 016-20001, Germany). For the oxidative stress marker, DNA denaturation was carried out with 2N HCl and the sections were stained for 8-oxo guanine (1:200 dilution, MAB3560, Millipore). Young immature neurons were detected by immunostaining for doublecortin (1:200 dilution, sc-66911, Santa Cruz Biotechnology). Total plaque load was quantified by immunostaining for β-amyloid (1:200 dilution, Invitrogen, 71-5800).
All sections were visualized using an Axio Scope 1 fluorescence microscope (Zeiss, Germany). For quantification, two images per section were taken from the cortex area with a 10× objective for 8-oxo guanine and β-amyloid staining, and a 100× objective for Iba1 staining, with a minimum of 5 sections visualized per animal. Image analysis was performed using multi threshold plug in Image J (NIH, USA).
Human oligomerised Aβ was measured using a kit purchased from Invitrogen, according to the manufacturer's instructions. Briefly, the right hemispheres from the brains of transgenic APP/PS1 mice treated with RI-OR2-TAT, or controls, were pooled separately and homogenized. Quantification of total protein was determined using the Bradford protein assay and was measured on a Nanophotometer (Implen, Germany). The homogenates were centrifuged at 100,000 g at 4° C. for 1 h. The supernatant was then diluted 1:10 before carrying out the sandwich ELISA, which measures soluble Aβ oligomer levels, but not amyloid monomers, as detailed in the manufacturer's protocol. The final AR oligomer values were determined following normalization of total protein levels.

[1] = Nanoparticle Tracking Analysis (NTA); assay type: physicochemical
Excerpt: The particles were investigated by Nanoparticle Tracking Analysis (NTA) which is a method for visualizing and analyzing particles in liquids that can be used to determine the size of individual particles by tracking their rate of Brownian motion.

SHSY-5Y cells [2] = assay: MTT cell viability assay, toxicity of PINPs alone; assay type: cell-based; details: 10 μM PINPs, 24 hours
Description: (§1) SHSY 5Y cells were grown and maintained in DMEM (Dulbecco's Modified Eagle Medium) supplemented with FBS under standard mammalian cell culture conditions. During treatment cells were kept in Optimem plus or minus peptide liposomes in 96 well plates at 20000 cells per well for 24 hours, again under standard culture conditions. For cell protection assays 5 μM of pre-aggregated Aβ1-42 was added at the same time as peptide liposomes. Cell viability was assessed for four wells for each treatment using a Promega CellTiter assay kit.

SHSY-5Y cells [3] = assay: MTT cell viability assay, protection from pre-aggregated Aβ1-42; assay type: cell-based; details: for Absorption units (560 nm): control with Abeta 2.467, no Abeta 3.608
Description: as §1

Row | oligomer formation in AFM images (Aβ42) | Compound | increase of mean number of young doublecortin-expressing neurons in the dentate region (APP/PS1 transgenic mice) [%] | reduction of cortical level of 8-oxo-guanine immunostaining (APP/PS1 transgenic mice) [%] | reduction of number of activated microglia in the cortex (APP/PS1 transgenic mice; Iba1 immunostaining) [%] | reduction of soluble Aβ oligomer levels in the brain (APP/PS1 transgenic mice; sandwich ELISA) [%] | reduction of amyloid plaque load in the cortex (APP/PS1 transgenic mice; versus saline, β-amyloid immunostaining) [%] | average diameter [1] [nm] | toxicity to cells (SHSY-5Y cells [2]) | Absorbance units (560 nm) (SHSY-5Y cells [2]; untreated cells 3.608, lysed cells 0.654) [Absorbance units] | Absorption units (560 nm) (SHSY-5Y cells [3]; PINPs 0.01 μM plus 5 μM pre-aggregated Aβ1-42) [Absorption units] | Absorption units (560 nm) (SHSY-5Y cells [3]; PINPs 0.1 μM plus 5 μM pre-aggregated Aβ1-42) [Absorption units] | Absorption units (560 nm) (SHSY-5Y cells [3]; PINPs 1 μM plus 5 μM pre-aggregated Aβ1-42) [Absorption units] | Absorption units (560 nm) (SHSY-5Y cells [3]; PINPs 10 μM plus 5 μM pre-aggregated Aβ1-42) [Absorption units] | cell viability in the presence of pre-aggregated Aβ1-42 (SHSY-5Y cells [3]; PINPs at 10, 1, 0.1, 0.01 μM)
1 | clear inhibition of oligomer formation | CC(=O)N[C@H](CCCNC(=N)N)C(=O)NCC(=O)N[C@H](Cc1ccccc1)C(=O)N[C@H](Cc1ccccc1)C(=O)N[C@@H](C(=O)N[C@H](CC(C)C)C(=O)N[C@H](CCCCN)C(=O)NCC(=O)N[C@H](CCCNC(=N)N)C(=O)N[C@H](CCCNC(=N)N)C(=O)N[C@H](CCCNC(=N)N)C(=O)N[C@H](CCCNC(=N)N)C(=O)N[C@H](CCC(N)=O)C(=O)N[C@H](CCCNC(=N)N)C(=O)N[C@H](CCCNC(=N)N)C(=O)N[C@H](CCCCN)C(=O)N[C@H](CCCCN)C(=O)N[C@H](CCCNC(=N)N)C(=O)NCC(=O)N[C@H](Cc1ccc(O)cc1)C(N)=O)C(C)C [RI-OR2-TAT, Ac-rGffvlkGrrrrqrrkkrGy-NH2] (Ac-[dR]G[dF][dF][dV][dL][dK]G[dR][dR][dR][dR][dQ][dR][dR][dK][dK][dR]G[dY]-NH2) | 210 | 25 | 44 | 25 | 32 |  |  |  |  |  |  |  | 
2 |  | PINPs: RI-OR2-TAT covalently attached to nanoliposomes (cholesterol:sphingomyelin [1:1] with 2.5% maleimide) via an additional cysteine (Ac-[dR]G[dF][dF][dV][dL][dK]G[dR][dR][dR][dR][dQ][dR][dR][dK][dK][dR]G[dY][dC]; not fully specified (residue 21); also: C-terminal D-Cys coupled via its thiol to maleimide lipid of nanoliposome) |  |  |  |  |  | 130 | not toxic to cells | 3.610 | 3.370 | 3.478 | 3.252 | 3.538 | cell viability remained near that of untreated cells
